The results in this text go back to US8399459B2, “1,4 oxazines as BACE1 and/or BACE2 inhibitors” (Hoffmann-La Roche Inc., priority 2011, dated 2013).

Common to all, as to assay type: in vitro ADME
For one assay, the target named is T1, CYP3A4 (Homo sapiens, UniProt P08684).
T1 construct: 0.2 mg/ml pooled human liver microsomes; from tissue; host or cells: pooled human liver microsomes
The assay is described as follows: CYP inhibition assay, human liver microsomes, midazolam 1′hydroxylase. The note with it: pooled human liver microsomes, read-out: CYP IC50 3A4. The procedure: (§1) Inhibition of cytochromes P450 (CYPs) 2C9, 2D6 and 3A4 was assessed using human liver microsomes and CYP-selective substrate metabolism reactions. 50 μl incubations were made up containing (finally) 0.2 mg/ml pooled human liver microsomes, 5 μM substrate (diclofenac for CYP2C9 [4′hydroxylase], dextromethorphan for CYP2D6 [O-demethylase] or midazolam for CYP3A4 [1′hydroxylase]), 0.25 μL DMSO containing test inhibitor and NADPH regenerating system. Test inhibitor concentrations of 50, 16.7, 5.6, 1.9, 0.6 and 0.2 μM were assessed in singlicate. Incubations were prewarmed to 37° C. for 10 minutes before initiation by addition of NADPH regenerating system. Incubations were quenched after 5 minutes (20 minutes for dextromethorphan) by addition of 50 μl cold acetonitrile containing 20 ng/ml 4-OH-diclofenac-13C6, 20 ng/mL dextrorphan-D3 and 20 ng/mL 1-OH-midazolam-D4. Quenched incubates were stored at −20° C. for at least 1 hour before centrifugation (20,000×g, 20 minutes). Supernatants were removed and diluted 1:1 with water prior to analysis using a RapidFire sample injector system and API4000 mass spectrometer. Peak areas for substrate, metabolite and stable-labelled metabolite standard were determined using MS/MS. The peak area ratios between the metabolite generated by the enzymatic reaction and the internal standard were used in subsequent calculations. The percentage of (DMSO) control activity was calculated for each incubate and IC50 values estimated by non-linear regression. Sulfaphenazole, quinidine or ketoconazole were tested in each CYP2C9, CYP2D6 or CYP3A4 inhibition experiment, respectively, to ensure assay sensitivity and reproducibility. (Validated assays for human cytochrome P450 activities, R. L. Walsky and R. S. Obach, Drug Metabolism and Disposition 32: 647-660, 2004. and S. Fowler and H. Zhang, The AAPS Journal, Vol. 10, No. 2, 410-424, 2008.)
In general terms: Liver microsomes are a subcellular fraction often used to study metabolism.

Another assay has as its target T2, CYP2D6 (Homo sapiens, UniProt P10635).
T2 construct: 0.2 mg/ml pooled human liver microsomes; from tissue; host or cells: pooled human liver microsomes
Put plainly: CYP inhibition assay, human liver microsomes, dextromethorphan O-demethylase. The note with it: pooled human liver microsomes, read-out: CYP IC50 2D6. The protocol:
as §1

The target of the next assay is T3, CYP2C9 (Homo sapiens, UniProt P11712).
T3 construct: 0.2 mg/ml pooled human liver microsomes; from tissue; host or cells: pooled human liver microsomes
T3 sequence (P11712 whole entry): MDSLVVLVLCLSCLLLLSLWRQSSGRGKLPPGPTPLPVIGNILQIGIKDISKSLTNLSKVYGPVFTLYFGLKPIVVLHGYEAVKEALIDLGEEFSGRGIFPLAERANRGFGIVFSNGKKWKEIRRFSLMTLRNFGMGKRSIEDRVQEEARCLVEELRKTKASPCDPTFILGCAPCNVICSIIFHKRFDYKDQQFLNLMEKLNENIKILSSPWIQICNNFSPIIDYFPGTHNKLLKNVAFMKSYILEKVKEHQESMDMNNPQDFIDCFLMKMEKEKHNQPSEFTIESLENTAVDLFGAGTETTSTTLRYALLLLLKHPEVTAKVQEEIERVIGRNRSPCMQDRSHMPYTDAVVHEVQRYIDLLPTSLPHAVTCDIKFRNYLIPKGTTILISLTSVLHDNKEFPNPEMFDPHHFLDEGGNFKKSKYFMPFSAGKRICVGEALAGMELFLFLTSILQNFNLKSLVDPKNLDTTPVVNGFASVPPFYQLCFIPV
Put plainly: CYP inhibition assay, human liver microsomes, diclofenac 4′hydroxylase. The note with it: pooled human liver microsomes, read-out: CYP IC50 2C9. The protocol: as §1

Molecules are shown by their SMILES.

T2 sequence (P10635 whole entry): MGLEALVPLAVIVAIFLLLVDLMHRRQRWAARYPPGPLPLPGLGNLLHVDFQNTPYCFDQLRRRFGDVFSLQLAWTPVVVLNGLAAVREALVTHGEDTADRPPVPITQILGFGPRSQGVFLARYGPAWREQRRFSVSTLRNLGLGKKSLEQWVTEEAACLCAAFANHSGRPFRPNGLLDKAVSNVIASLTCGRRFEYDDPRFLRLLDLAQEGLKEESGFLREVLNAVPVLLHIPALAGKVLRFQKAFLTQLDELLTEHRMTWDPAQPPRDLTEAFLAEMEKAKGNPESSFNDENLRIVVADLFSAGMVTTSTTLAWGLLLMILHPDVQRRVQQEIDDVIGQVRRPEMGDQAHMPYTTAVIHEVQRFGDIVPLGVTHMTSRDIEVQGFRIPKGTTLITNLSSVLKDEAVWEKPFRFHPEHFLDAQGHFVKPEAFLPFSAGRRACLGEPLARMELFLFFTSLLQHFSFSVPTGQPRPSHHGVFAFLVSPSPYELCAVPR
T1 sequence (P08684 whole entry): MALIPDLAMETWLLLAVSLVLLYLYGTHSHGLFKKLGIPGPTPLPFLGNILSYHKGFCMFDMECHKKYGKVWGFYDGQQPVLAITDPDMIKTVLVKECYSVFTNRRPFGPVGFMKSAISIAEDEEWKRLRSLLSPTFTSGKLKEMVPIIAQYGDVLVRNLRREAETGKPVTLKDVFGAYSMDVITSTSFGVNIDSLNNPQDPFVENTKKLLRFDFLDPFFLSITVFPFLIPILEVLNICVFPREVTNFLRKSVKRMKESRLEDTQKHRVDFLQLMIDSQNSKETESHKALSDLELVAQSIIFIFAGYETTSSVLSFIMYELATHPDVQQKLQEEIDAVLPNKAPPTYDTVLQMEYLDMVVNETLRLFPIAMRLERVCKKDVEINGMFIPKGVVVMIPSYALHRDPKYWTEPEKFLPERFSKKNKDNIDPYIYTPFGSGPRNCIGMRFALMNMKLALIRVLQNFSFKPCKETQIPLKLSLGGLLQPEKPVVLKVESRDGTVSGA

As for `CC1(c2cccc(-c3cncnc3)c2)COCC(N)=N1` (stereo not drawn) [Example 35, 5-Methyl-5-(3-pyrimidin-5-yl-phenyl)-5,6-dihydro-2H-[1,4]oxazin-3-ylamine], the IC50 at CYP3A4 is > 50 µM; on CYP2D6 it was 18 µM; at CYP2C9, > 50 µM.

A word on the IC50: it is the concentration that inhibits the measured activity by half.
